In brackets after ≈: the same amount, converted by molar mass. Several values for one entry are separate records, joined by “and”; a condition that tells them apart may be missing. Equal entries are not always repeated. Where two headings read alike, the source gives them in different places.
Legend:
[1] = system: neuronal differentiated N2a cells; test: Time-course of uptake in neuronal differentiated N2a cells; format: cell-based, mouse
Description: (§1) N2a cells were seeded on T75 flasks and grown in Dulbecco’s Modified Eagle Medium (DMEM) containing Glutamax, supplemented with 100 μg/mL streptomycin, 100 IU/mL penicillin, and 10% fetal bovine serum (FBS) in a humidified 5% CO2 atmosphere at 37 °C. After two passages by trypsinization, cells were seeded at a density of 5 × 10^3 cells/well in 12-well plates with 2 mL of DMEM or at a density of 5 × 10^2 cells/well in 96-well plates with 0.2 mL of DMEM, depending on the study (see below). For neural differentiation, N2a cells were allowed to adhere and proliferate in wells for 4 days; then, after washing once with serum-free DMEM, differentiating medium composed of DMEM containing 1% HS and 20 μM all-trans-retinoic acid (atRA) was added in both the seeding conditions, up to 6 days of differentiation, after which the cells were used for the experiments.
The potential ability of Fer-Ger to enter the neuronal cells of the brain, where it may exert its neuroprotective effects, was evaluated in 9 days-neuronal differentiated N2a cells (5 × 10^3 cells/well in a 12-well plate) at its best non-toxic concentrations of 5 µM and 10 µM in MTT. For their optimal dissolution, 5 µM and 10 µM Fer-Ger solutions in DPBS containing 0.1% BSA were kept for 30 min at 37 °C before the uptake experiment. Each of the 12-well plates was rinsed once with 1 mL of DPBS, and then 1 mL of 5 µM and 10 µM Fer-Ger was added to the test wells, and the plate was incubated for pre-determined interval times (5, 15, 30, and 60 min) in a humidified 5% CO2 atmosphere at 37 °C. The incubation was stopped at each time by taking the incubation DPBS from each well and storing it in Eppendorf tubes. […] The final number of cells was evaluated on untreated wells following their trypsinization and counted using the Scepter^TM 2.0 automated cell counter (Merck Millipore, Milan, Italy). Each reported value represents the mean of four independent incubation experiments.

[2] = Solubility measurements; format: physicochemical; conditions: 25 °C, thermodynamic from solid
Description: Solubility measurements of pure Fer-Ger were performed by adding an excess amount of Fer-Ger (about 10 mg) in 5 mL of pure water, DPBS, or a mixture made of DPBS and methanol (70:30 v/v) at 25 °C. The samples were magnetically stirred for 48 h. The supernatant was filtered through a 0.45 μm regenerate-cellulose membrane filter, and 10 µL of the filtered samples were injected into the HPLC-DAD system for Fer-Ger quantification. The study was performed in triplicate.

[3] = Hydrolysis kinetics in rat liver homogenates; format: in vitro ADME
Description: Livers were obtained from male Wistar rats, which were sacrificed by decapitation, after a slight isoflurane anesthesia. The livers were immediately isolated, and, after washing with ice-cold saline solution, they were homogenized in 4 volumes (w/v) of Tris HCl (50 mM, pH 7.4, 4 °C) by using a Potter–Elvehjem apparatus. The supernatant obtained after centrifugation (2000× g for 10 min at 4 °C) was decanted off and stored at −80 °C before its use for kinetic studies.
Kinetic analysis of Fer-Ger was performed by its incubation at 37 °C in 3 mL of rat liver or brain homogenates at 30 µM (9.92 µg/mL) final concentration. At defined time intervals, 100 μL of homogenates were withdrawn and immediately treated by quenching them in EtOH (250 µL), then an internal standard (100 μM carbazole dissolved in EtOH, 50 µL) was added. The samples were centrifuged (13,500× g for 10 min), and the 300 μL aliquots were reduced to dryness under a nitrogen stream. […]
The Fer-Ger degradation in whole blood or homogenates was analyzed as exponential decay plots of its concentrations versus incubation time, and the related half-life values were obtained from the linear regression of the corresponding semi-logarithmic plots. The quality of the fits was evaluated by considering the correlation coefficients (r) and p values. […]
Fer-Ger and its hydrolysis product, Ger, were quantified by HPLC. […]

[4] = system: differentiated N2a cells; test: MTT assay of H2O2-altered viability (neuroprotection); format: cell-based, mouse; conditions: then 100 µM H2O2 for 24 h
Description: as §1
The MTT assay was also carried out to determine the neuroprotective effect of Fer-Ger on H2O2-induced cell oxidative stress in N2a neuronal cells. Briefly, N2a cells (5 × 10^2) were seeded and differentiated into 96-well plates, as reported above. Then, cells were incubated with 1 µM and 5 µM Fer-Ger dissolved in DMEM containing 0.5% HS for 1 h in a humidified 5% CO2 atmosphere at 37 °C. The experimental design therefore included cells incubated with only culture medium as a control and cells incubated for 24 h with 100 µM H2O2 as a damage-inducing agent after 1 h of preincubation in the absence or presence of 1 µM or 5 µM Fer-Ger. Then, 20 μL of MTT (5 mg/mL) was added into the 200 µL of the incubation medium. Four hours later, the medium containing MTT was aspirated and replaced by 100 µL of dimethyl sulfoxide (DMSO) solubilization agent for 1 h at 37 °C in an orbital shaker incubator. Finally, the absorbance of each well was measured at 570 nm using a microtiter plate reader (Sunrise® Microplate Reader, Tecan Trading AG, Männedorf, Switzerland).

## COc1cc(/C=C/C(=O)OC/C=C(\C)CCC=C(C)C)ccc1O [Fer-Ger, Geranyl ferulate]
[1]; 5 μM Fer-Ger in DPBS, within 60 min, 37 °C
  intracellular concentration (cellular uptake), saturation: 18.36 ± 2.52 ng/5 × 10^4 cells
[1]; 5 μM Fer-Ger in DPBS, within the first 5 min of incubation, 37 °C
  intracellular concentration (cellular uptake): 9.46 ± 0.98 ng/5 × 10^4 cells
[1]; 10 μM Fer-Ger in DPBS, within 60 min, 37 °C
  intracellular concentration (cellular uptake), steady state: 46.73 ± 2.25 ng/5 × 10^4 cells
[1]; 10 μM Fer-Ger in DPBS, within the first 5–15 min of incubation, 37 °C
  intracellular concentration (cellular uptake): 36.83 ± 1.65 ng/5 × 10^4 cells
[1]; N2a cells, 5 and 10 μM, up to 60 min
  hydrolysis by neuronal cells (Ger detection intra- and extracellular): not hydrolyzed by neuronal cells
[2]; DPBS, aqueous buffer, read-out: solubility in DPBS
  solubility at 48 h: 0.24 ± 0.01 µg/mL (≈ 0.726 µM)
[2]; DPBS/methanol 70:30 v/v, aqueous with cosolvent or surfactant or cyclodextrin, DPBS and MeOH 70:30 v/v, read-out: solubility in mixture of DPBS and MeOH
  solubility at 48 h: 8.1 ± 0.3 µg/mL (≈ 24.5 µM)
[2]; pure water, water, read-out: water solubility
  solubility at 48 h: 0.26 µg/mL and 0.77 µM
[3]
  time to complete hydrolysis: about 30 min
[3]; male, Wistar, liver homogenate, pH 7.4, 37 °C, 30 µM, pseudo-first-order kinetic
  half-life at 30 µM: 3.94 ± 0.33 min
[4]; 1 µM Fer-Ger preincubated 1 h
  prevention of H2O2-induced cell viability damage: fully prevented
[4]; 5 µM Fer-Ger preincubated 1 h
  prevention of H2O2-induced cell viability damage: fully prevented
